Experimental findings from patent US20100298343A1, “5-LIPOXYGENASE-ACTIVATING PROTEIN (FLAP) INHIBITORS” (priority 2007, published 2010) are described below.

This experiment concerns the target T1, 5-lipoxygenase-activating protein (FLAP) (Homo sapiens, UniProt P20292).
T1 construct: tissue Biological Speciality Corporation; host or cells: human polymorphonuclear cells (100,000 g membranes)
T1 sequence (P20292 1-161): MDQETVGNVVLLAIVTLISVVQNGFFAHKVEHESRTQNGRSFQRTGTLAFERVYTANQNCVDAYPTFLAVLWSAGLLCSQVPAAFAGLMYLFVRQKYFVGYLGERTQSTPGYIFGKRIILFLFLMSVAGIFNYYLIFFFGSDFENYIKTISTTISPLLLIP
Put plainly: FLAP Binding Assay. The settings on record: human polymorphonuclear cell 100,000 g membranes; 3H MK886 or other radioligand; 30 minutes at room temperature. As for the experimental part:
A non-limiting example of such a FLAP binding assay is as follows:
Packed human polymorphonuclear cell pellets (1.8×10^9 cells) (Biological Speciality Corporation) were resuspended, lysed and 100,000 g membranes prepared as described (Charleson et al. Mol. Pharmacol, 41, 873-879, 1992). 100,000×g pelleted membranes were resuspended in Tris-Tween assay buffer (100 mM Tris HCl pH 7.4, 140 mM NaCl, 2 mM EDTA, 0.5 mM DTT, 5% glycerol, 0.05% Tween 20) to yield a protein concentration of 50-100 μg/mL. 10 μL membrane suspension was added to 96 well Millipore plate, 78 μL Tris-Tween buffer, 10 μL ^3H MK886 or ^3H 3-[5-(pyrid-2-ylmethoxy)-3-tert-butylthio-1-benzyl-indol-2-yl]-2,2-dimethylpropionic acid (or ^125I MK591 derivative Eggler et al, J. Labelled Compounds and Radiopharmaceuticals, 1994, vXXXIV, 1147)) to 30,000 cpm, 2 μL, inhibitor and incubated for 30 minutes at room temperature. 100 μL ice-cold washed buffer was added to the incubation mixture. Plates were then filtered and washed 3× with 200 μL ice cold Tris-Tween buffer, scintillation bottoms sealed, 100 μL scintillant added, shaken for 15 minutes then counted in a TopCount. Specific binding was determined as defined as total radioactive binding minus non-specific binding in the presence of 10 μM MK886. IC50s were determined using Graphpad prism analysis of drug titration curves.
Compound `Cn1c(C(Cc2ccccc2)C(=O)O)c(S(C)(=O)=O)c2cc(OCc3ccccn3)ccc21` (stereo not shown) [Example 10, 2-[3-Methanesulfonyl-1-methyl-5-(pyridin-2-ylmethoxy)-1H-indol-2-yl]-3-phenyl-propionic acid] gave an IC50 of 10 to 100 µM.

`CCS(=O)(=O)c1c(C(Cc2ccccc2)C(=O)O)n(C)c2ccc(OCc3ccccn3)cc12` (stereo not shown) [Example 11, 2-[3-Ethanesulfonyl-1-methyl-5-(pyridin-2-ylmethoxy)-1H-indol-2-yl]-3-phenyl-propionic acid] yielded a half-inhibitory concentration (IC50) of 10 to 100 µM.

For `Cc1cnc(COc2ccc3c(c2)c(SC(C)(C)C)c(C(Cc2cnc(C)cn2)C(=O)O)n3C)cn1` (stereo not shown) [Example 37, 2-[3-tert-Butylsulfanyl-1-methyl-5-(5-methyl-pyrazin-2-ylmethoxy)-1H-indol-2-yl]-3-(5-methyl-pyrazin-2-yl)-propionic acid], the IC50 lay in the range of 100 to 250 µM.

The compound `CSc1c(C(Cc2ccccc2)C(=O)O)n(C)c2ccc(OCc3ccccn3)cc12` (stereo not shown) [Example 9, 2-[1-Methyl-3-methylsulfanyl-5-(pyridin-2-ylmethoxy)-1H-indol-2-yl]-3-phenyl-propionic acid] returned an IC50 of 10 to 100 µM.

In general, IC50 refers to the concentration that gives 50% inhibition. Lower therefore signals higher potency.
